Where two headings read alike, the source gives them in different places.
Test system: L. bulgaricus DPC6901
Assay: Well-diffusion assay of naturally produced and synthetic peptides
Type: cell-based, Lactobacillus delbrueckii subsp. bulgaricus
Settings: for antimicrobial activity of synthetic peptides: synthetic peptides resuspended in milli Q water at 1 mg/ml
[1] = fractions from HPLC fractionation I and II of L. gasseri LM19 cell extracts and supernatant, well-diffusion, Fig. 4a

Sequence	antimicrobial activity of HPLC fractions containing the peptide mass [1]	antimicrobial activity of synthetic peptides (well-diffusion, Fig. 4a)	antimicrobial activity of HPLC fractions containing the peptide mass
MALKTLEKHELRNVMGGNKWGNAVIGAATGATRGVSWCRGFGPWGMTACGLGGAAIGGYLGYKSN [GamX, class IIb bacteriocin peptide of L. gasseri LM19 cluster 3, purified from culture and synthesised]	low activity		
MKNFNTLSFETLANIVGGRNNWAANIGGVGGATVAGWALGNAVCGPACGFVGAHYVPIAWAGVTAATGGFGKIRK [GamA, class IIb bacteriocin peptide of L. gasseri LM19 cluster 3, purified from culture and synthesised]	largest zones of inhibition	highest activity	
MKTLNEQELTQIVGGKGNKGINWANVRCASAVTIGALGGGLAGPGGMVGGFLLGSGACF [GamY, peptide of the novel two-component bacteriocin gassericin M]		did not show activity	clear activity
MKVLNECQLQTVVGGKNWSVAKCGGTIGTNIAIGAWRGARAGSFFGQPVSVGAGALIGASAGAIGGSVQCVGWLAGGGR [Bact_1, bacteriocin peptide of L. gasseri LM19 cluster 1, identical to gassericin S peptide GasA]		lower than that from fractions containing the Bact_1 mass	
MIEKVSKNELSRIYGGNNVNWGSVAGSCGKGAVMGIYFGNPILGCANGAATSLVLQTASGIYKNYQKKR [Bact_2, bacteriocin peptide of L. gasseri LM19 cluster 1, identical to gassericin S peptide GasX]		highest activity	largest zones of inhibition
MRKINKEELVEITGGFNAAKCAVGTAGGAFSIARGSAAFGVPGMVIGGILGGAAGALASCK [GamM, peptide of the novel two-component bacteriocin gassericin M]		notable	low activity

Reference: article PMC7162838, “Production of multiple bacteriocins, including the novel bacteriocin gassericin M, by Lactobacillus gasseri LM19, a strain isolated from human milk” (Applied Microbiology and Biotechnology, 2020)
